Tested on: DYT-TOR1A MEF EVs
Experiment: Quantitative LC-MS/MS proteomics of EVs from drug-treated DYT-TOR1A MEF cultures (ritonavir, salubrinal)
Type: cell-based, mouse
Design: key to RTV Corrective Direction / RTV Corrective Direction, Grwd1 / RTV Corrective Direction, Srrm2 / RTV Corrective Direction, Rbm17 / RTV Corrective Direction, Dcaf8 / RTV Corrective Direction, Edil3 / RTV Corrective Direction, Timp3 / RTV Corrective Direction, Heatr3 / RTV Corrective Direction, Brd4 / RTV Corrective Direction, P3h4 / RTV Corrective Direction, Pacsin3 / RTV Corrective Direction, Naa50 / RTV Corrective Direction, Lpar6 / RTV Corrective Direction, Ndrg1 / RTV Corrective Direction, Kntc1 / RTV Corrective Direction, Cdk11b / RTV Corrective Direction, Sumo1 / RTV Corrective Direction, Lsm4 / RTV Corrective Direction, Hmga2 / RTV Corrective Direction, Cstf1 / RTV Corrective Direction, Tes / RTV Corrective Direction, Sbno1 / RTV Corrective Direction, Unc119b / RTV Corrective Direction, Cfdp1 / RTV Corrective Direction, Sec61b: YES = protein abundance effect opposite to DYT/WT

SMILES: CC(C)c1nc(CN(C)C(=O)N[C@H](C(=O)N[C@@H](Cc2ccccc2)C[C@H](O)[C@H](Cc2ccccc2)NC(=O)OCc2cncs2)C(C)C)cs1 [ritonavir]
- Absolute Cohen's d Sum (Geno + RTV), Brd4 (EV protein Brd4 (Q9ESU6)): 6.97
- DYT + RTV/DYT Cohen's d, Brd4 (EV protein Brd4 (Q9ESU6)): 3.33
- RTV Corrective Direction, Brd4 (EV protein Brd4 (Q9ESU6), DYT + RTV vs DYT): YES
- Absolute Cohen's d Sum (Geno + RTV), Cdk11b (EV protein Cdk11b (P24788)): 6.07
- DYT + RTV/DYT Cohen's d, Cdk11b (EV protein Cdk11b (P24788)): 2.84
- RTV Corrective Direction, Cdk11b (EV protein Cdk11b (P24788), DYT + RTV vs DYT): YES
- Absolute Cohen's d Sum (Geno + RTV), Cfdp1 (EV protein Cfdp1 (O88271)): 4.50
- DYT + RTV/DYT Cohen's d, Cfdp1 (EV protein Cfdp1 (O88271)): 1.87
- RTV Corrective Direction, Cfdp1 (EV protein Cfdp1 (O88271), DYT + RTV vs DYT): YES
- Absolute Cohen's d Sum (Geno + RTV), Cstf1 (EV protein Cstf1 (Q99LC2)): 4.79
- DYT + RTV/DYT Cohen's d, Cstf1 (EV protein Cstf1 (Q99LC2)): 1.81
- RTV Corrective Direction, Cstf1 (EV protein Cstf1 (Q99LC2), DYT + RTV vs DYT): YES
- Absolute Cohen's d Sum (Geno + RTV), Ctdsp1 (EV protein Ctdsp1 (P58466)): 9.37
- DYT + RTV/DYT Cohen's d, Ctdsp1 (EV protein Ctdsp1 (P58466)): −0.28
- DYT + RTV/DYT Cohen's d, Dcaf8 (EV protein Dcaf8): 3.49
- Absolute Cohen's d Sum (Geno + RTV), Dcaf8 (EV protein Dcaf8 (Q8N7N5)): 7.70
- RTV Corrective Direction, Dcaf8 (EV protein Dcaf8 (Q8N7N5), DYT + RTV vs DYT): YES
- Absolute Cohen's d Sum (Geno + RTV), Dnajc7 (EV protein Dnajc7 (Q9QYI3)): 4.50
- DYT + RTV/DYT Cohen's d, Dnajc7 (EV protein Dnajc7 (Q9QYI3)): −0.67
- Absolute Cohen's d Sum (Geno + RTV), Drg1 (EV protein Drg1 (P32233)): 4.38
- DYT + RTV/DYT Cohen's d, Drg1 (EV protein Drg1 (P32233)): −1.06
- Absolute Cohen's d Sum (Geno + RTV), Edil3 (EV protein Edil3 (O35474)): 7.67
- DYT + RTV/DYT Cohen's d, Edil3 (EV protein Edil3 (O35474)): 4.51
- RTV Corrective Direction, Edil3 (EV protein Edil3 (O35474), DYT + RTV vs DYT): YES
- Absolute Cohen's d Sum (Geno + RTV), Grwd1 (EV protein Grwd1 (Q810D6)): 8.06
- DYT + RTV/DYT Cohen's d, Grwd1 (EV protein Grwd1 (Q810D6)): 2.65
- RTV Corrective Direction, Grwd1 (EV protein Grwd1 (Q810D6), DYT + RTV vs DYT): YES
- Absolute Cohen's d Sum (Geno + RTV), Heatr3 (EV protein Heatr3 (Q8BQM4)): 7.08
- DYT + RTV/DYT Cohen's d, Heatr3 (EV protein Heatr3 (Q8BQM4)): 3.09
- RTV Corrective Direction, Heatr3 (EV protein Heatr3 (Q8BQM4), DYT + RTV vs DYT): YES
- Absolute Cohen's d Sum (Geno + RTV), Hmga2 (EV protein Hmga2 (P52927)): 5.34
- DYT + RTV/DYT Cohen's d, Hmga2 (EV protein Hmga2 (P52927)): 1.97
- RTV Corrective Direction, Hmga2 (EV protein Hmga2 (P52927), DYT + RTV vs DYT): YES
- Absolute Cohen's d Sum (Geno + RTV), Kntc1 (EV protein Kntc1 (Q8C3Y4)): 6.09
- DYT + RTV/DYT Cohen's d, Kntc1 (EV protein Kntc1 (Q8C3Y4)): 2.48
- RTV Corrective Direction, Kntc1 (EV protein Kntc1 (Q8C3Y4), DYT + RTV vs DYT): YES
- Absolute Cohen's d Sum (Geno + RTV), Lpar6 (EV protein Lpar6 (Q8BMC0)): 6.22
- DYT + RTV/DYT Cohen's d, Lpar6 (EV protein Lpar6 (Q8BMC0)): −3.03
- RTV Corrective Direction, Lpar6 (EV protein Lpar6 (Q8BMC0), DYT + RTV vs DYT): YES
- Absolute Cohen's d Sum (Geno + RTV), Lsm4 (EV protein Lsm4 (Q9QXA5)): 5.40
- DYT + RTV/DYT Cohen's d, Lsm4 (EV protein Lsm4 (Q9QXA5)): 2.49
- RTV Corrective Direction, Lsm4 (EV protein Lsm4 (Q9QXA5), DYT + RTV vs DYT): YES
- Absolute Cohen's d Sum (Geno + RTV), Maea (EV protein Maea (Q4VC33)): 3.96
- DYT + RTV/DYT Cohen's d, Maea (EV protein Maea (Q4VC33)): −0.37
- Absolute Cohen's d Sum (Geno + RTV), Myo1e (EV protein Myo1e (E9Q634)): 5.88
- DYT + RTV/DYT Cohen's d, Myo1e (EV protein Myo1e (E9Q634)): −1.46
- Absolute Cohen's d Sum (Geno + RTV), Naa50 (EV protein Naa50 (Q6PGB6)): 6.3
- DYT + RTV/DYT Cohen's d, Naa50 (EV protein Naa50 (Q6PGB6)): 1.96
- RTV Corrective Direction, Naa50 (EV protein Naa50 (Q6PGB6), DYT + RTV vs DYT): YES
- Absolute Cohen's d Sum (Geno + RTV), Ndrg1 (EV protein Ndrg1 (Q62433)): 6.19
- DYT + RTV/DYT Cohen's d, Ndrg1 (EV protein Ndrg1 (Q62433)): 2.70
- RTV Corrective Direction, Ndrg1 (EV protein Ndrg1 (Q62433), DYT + RTV vs DYT): YES
- Absolute Cohen's d Sum (Geno + RTV), P3h4 (EV protein P3h4 (Q8K2B0)): 6.88
- DYT + RTV/DYT Cohen's d, P3h4 (EV protein P3h4 (Q8K2B0)): 1.62
- RTV Corrective Direction, P3h4 (EV protein P3h4 (Q8K2B0), DYT + RTV vs DYT): YES
- Absolute Cohen's d Sum (Geno + RTV), Pacsin3 (EV protein Pacsin3 (Q99JB8)): 6.45
- DYT + RTV/DYT Cohen's d, Pacsin3 (EV protein Pacsin3 (Q99JB8)): −3.41
- RTV Corrective Direction, Pacsin3 (EV protein Pacsin3 (Q99JB8), DYT + RTV vs DYT): YES
- Absolute Cohen's d Sum (Geno + RTV), Pcdh19 (EV protein Pcdh19 (Q80TF3)): 7.74
- DYT + RTV/DYT Cohen's d, Pcdh19 (EV protein Pcdh19 (Q80TF3)): −0.30
- Absolute Cohen's d Sum (Geno + RTV), Plpp3 (EV protein Plpp3 (Q99JY8)): 4.97
- DYT + RTV/DYT Cohen's d, Plpp3 (EV protein Plpp3 (Q99JY8)): 0.51
- Absolute Cohen's d Sum (Geno + RTV), Rbm17 (EV protein Rbm17 (Q8JZX4)): 7.77
- DYT + RTV/DYT Cohen's d, Rbm17 (EV protein Rbm17 (Q8JZX4)): 2.38
- RTV Corrective Direction, Rbm17 (EV protein Rbm17 (Q8JZX4), DYT + RTV vs DYT): YES
- Absolute Cohen's d Sum (Geno + RTV), Sbno1 (EV protein Sbno1 (Q689Z5)): 4.67
- DYT + RTV/DYT Cohen's d, Sbno1 (EV protein Sbno1 (Q689Z5)): 1.29
- RTV Corrective Direction, Sbno1 (EV protein Sbno1 (Q689Z5), DYT + RTV vs DYT): YES
- Absolute Cohen's d Sum (Geno + RTV), Sec61b (EV protein Sec61b (Q9CQS8)): 3.57
- DYT + RTV/DYT Cohen's d, Sec61b (EV protein Sec61b (Q9CQS8)): 0.27
- RTV Corrective Direction, Sec61b (EV protein Sec61b (Q9CQS8), DYT + RTV vs DYT): YES
- Absolute Cohen's d Sum (Geno + RTV), Sh3bp4 (EV protein Sh3bp4 (Q921I6)): 4.75
- DYT + RTV/DYT Cohen's d, Sh3bp4 (EV protein Sh3bp4 (Q921I6)): −0.91
- Absolute Cohen's d Sum (Geno + RTV), Srrm2 (EV protein Srrm2 (Q8BTI8)): 7.87
- DYT + RTV/DYT Cohen's d, Srrm2 (EV protein Srrm2 (Q8BTI8)): 3.51
- RTV Corrective Direction, Srrm2 (EV protein Srrm2 (Q8BTI8), DYT + RTV vs DYT): YES
- Absolute Cohen's d Sum (Geno + RTV), Sumo1 (EV protein Sumo1 (P63166)): 5.99
- DYT + RTV/DYT Cohen's d, Sumo1 (EV protein Sumo1 (P63166)): 2.28
- RTV Corrective Direction, Sumo1 (EV protein Sumo1 (P63166), DYT + RTV vs DYT): YES
- Absolute Cohen's d Sum (Geno + RTV), Tes (EV protein Tes (P47226)): 4.69
- DYT + RTV/DYT Cohen's d, Tes (EV protein Tes (P47226)): 0.20
- RTV Corrective Direction, Tes (EV protein Tes (P47226), DYT + RTV vs DYT): YES
- Absolute Cohen's d Sum (Geno + RTV), Timp3 (EV protein Timp3 (P39876)): 7.42
- DYT + RTV/DYT Cohen's d, Timp3 (EV protein Timp3 (P39876)): −2.93
- RTV Corrective Direction, Timp3 (EV protein Timp3 (P39876), DYT + RTV vs DYT): YES
- Absolute Cohen's d Sum (Geno + RTV), Tspan7 (EV protein Tspan7 (Q62283)): 7.37
- DYT + RTV/DYT Cohen's d, Tspan7 (EV protein Tspan7 (Q62283)): −2.89
- Absolute Cohen's d Sum (Geno + RTV), Unc119b (EV protein Unc119b (Q8C4B4)): 4.63
- DYT + RTV/DYT Cohen's d, Unc119b (EV protein Unc119b (Q8C4B4)): 2.22
- RTV Corrective Direction, Unc119b (EV protein Unc119b (Q8C4B4), DYT + RTV vs DYT): YES
- Pearson's r between genotype and ritonavir effects on EV protein abundance (entire proteome, n=1974): −0.74
- Pearson's r between genotype and ritonavir effects on EV protein abundance (putative DYT biomarker subset, n=363): −0.78
- additional human plasma EV protein homologs modulated in a corrective direction in mouse DYT1 EV experiment (MEF), not reaching significance (p<0.05) (ritonavir): 687
- all EV proteins with log 2 fold change>0 (ritonavir 20 μM, 24 h): 1372/1974
- number of significant hits among 363 proteins relative to chance (α=0.05) (ritonavir 20 μM, 24 h): 12 times
- overall effect on the DYT-TOR1A MEF EV proteome (ritonavir 20 μM, 24 h): broad corrective effect
- significantly modified EV proteins with log 2 fold change>0 (ritonavir 20 μM, 24 h): 508/582
- overall effect on the DYT-TOR1A MEF EV proteome (ritonavir 20 μM, 24 h, listed as Ritonavir): proteome-wide corrective effects
- hierarchical clustering of EV samples on 363 genotype biomarker proteins (ritonavir-treated DYT-TOR1A EV samples): clustered more closely with WT than DYT-TOR1A samples
